Measured values reported in patent EP3381906A1, “COMPOUNDS FOR USE AS HEPARANASE INHIBITORS” (Leadiant Biosciences SA, priority 2017, dated 2018).
Read-outs that look alike come from different tables or passages of the source.

Legend:
heparanase = biological target: T1, heparanase (Homo sapiens, UniProt Q9Y251); assay: AGA*IA assay: heparanase-catalyzed fondaparinux cleavage, colorimetric (WST-1); format: biochemical
T1 construct: 100 µM fondaparinux, 2.5 nM heparanase and serial dilutions of test compounds
T1 sequence (Q9Y251 158-543 limits assumed): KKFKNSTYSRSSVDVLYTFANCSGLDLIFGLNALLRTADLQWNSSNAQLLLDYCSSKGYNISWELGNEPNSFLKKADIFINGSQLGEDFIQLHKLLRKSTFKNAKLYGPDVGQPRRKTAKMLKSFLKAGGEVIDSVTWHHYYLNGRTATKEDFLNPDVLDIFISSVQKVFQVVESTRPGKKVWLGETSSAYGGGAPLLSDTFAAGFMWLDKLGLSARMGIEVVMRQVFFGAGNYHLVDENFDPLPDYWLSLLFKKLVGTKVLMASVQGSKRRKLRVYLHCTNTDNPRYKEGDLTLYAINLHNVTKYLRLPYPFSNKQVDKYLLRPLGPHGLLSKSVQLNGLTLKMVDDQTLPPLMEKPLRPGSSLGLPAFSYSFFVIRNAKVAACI
T1 sequence (Q9Y251 36-109 limits assumed): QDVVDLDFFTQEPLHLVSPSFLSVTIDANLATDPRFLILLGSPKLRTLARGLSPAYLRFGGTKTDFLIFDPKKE
Method: All compounds were tested in a simple, accurate and robust microplate assay based on the cleavage of the synthetic heparin fragment, the pentasaccharide Fondaparinux (AGA*IA). This assay was originally developed by Hammond and coworkers [Hammond E, Li CP, Ferro V. Development of a colorimetric assay for heparanase activity suitable for kinetic analysis and inhibitor screening. […] Fondaparinux is cleaved by heparanase to generate a reducing disaccharide, which can be quantitatively measured via a colorimetric or a fluorescence assay, the last by the fluorescent sensor polymer-H [Schiemann S, Lühn S, Alban S. Development of both colorimetric and fluorescence heparinase activity assays using fondaparinux as substrate.
The assay measures the appearance of the disaccharide product of heparanase-catalyzed fondaparinux cleavage colorimetrically using the tetrazolium salt WST-1. Assay was essentially performed as described with minor modifications. Briefly, NUNC ELISA 96-well plates were pre-treated with a solution of 4% BSA (bovin serum albumin) in phosphate-buffered saline containing 0.05% Tween 20 (PBST), for 2 h at 37°C, then washed three times with PBST, dried by tapping on paper towel and stored at -20°C. Before use, once again, the plates were washed with PBST.
Then, the absorbance at 560 nm was measured through a microplate reader (Victor 3, Perkin Elmer).
Finally, the measurements were corrected by subtracting both the reagent background and the inner absorbance value of test compound.

[1] = test system: HT1080 (human fibrosarcoma); assay: SRB Cell Cytotoxicity Assay; format: cell-based; settings: HT-1080, HT1080, treated for 72h, read-out: Concentration of test compounds at which the cell growth is inhibited by 50 % HT1080
Source text: (§1) SRB Cell Cytotoxicity Assay is an assay based upon the quantitative staining of cellular proteins by sulforhodamine B (SRB). This assay can be used for high-throughput drug screening (Vichai & Kirkitara, Nature Protocol. 2006, 1, 112). Sulforhodamine B is an anionic aminoxanthene dye that forms an electrostatic complex with the basic amino acid residues of proteins under moderately acid conditions, which provides a sensitive linear response.
(§2) To assess a putative antiproliferative activity of the selected compounds, HT1080 (human fibrosarcoma), U87MG (human glioblastoma astrocytoma) and U2OS (human osteosarcoma) cell lines were treated for 72h, in triplicate, with increasing concentrations of heparanase inhibitors. Inhibition of cell proliferation was then measured by the classical colorimetric SRB Cell Cytotoxicity assay. Absorbance was measured by spectrophotometer at a wavelength of 510 nm and cell proliferation was determined as percent with respect to control cells (cells treated with the vehicle alone). EC50 values were then determined by GraphPad Prism.

[2] = test system: U2OS (human osteosarcoma); assay: SRB Cell Cytotoxicity Assay; format: cell-based; settings: treated for 72h, read-out: Concentration of test compounds at which the cell growth is inhibited by 50 % U2OS
Source text: as §1, §2

[3] = test system: U87MG (human glioblastoma astrocytoma); assay: SRB Cell Cytotoxicity Assay; format: cell-based; settings: U-87 MG, treated for 72h, read-out: Concentration of test compounds at which the cell growth is inhibited by 50 % U87MG
Source text: as §1, §2

[4] = 2.5 nM heparanase, 100 µM fondaparinux, pH 5.0, 3 h at 37°C, class symbols, read-out: AGAIA assay (IC50)

SMILES	IC50 (heparanase; [4]) [µM]	other results
CC(C)(c1ccc(Oc2ccc3c(c2)C(=O)N(c2ccc(C(=O)O)cc2)C3=O)cc1)c1ccc(Oc2ccc3c(c2)C(=O)N(c2ccc(C(=O)O)cc2)C3=O)cc1 [SST0852, 4-[5-[4-[2-[4-[2-(4-carboxyphenyl)-1,3-dioxoisoindol-5-yl]oxyphenyl]propan-2-yl]phenoxy]-1,3-dioxoisoindol-2-yl]benzoic acid]	1 to 10	–
Nc1ccc2cc(S(=O)(=O)O)cc(O)c2c1N=Nc1ccc(NC(=O)Nc2ccc(N=Nc3c(N)ccc4cc(S(=O)(=O)O)cc(O)c34)c(S(=O)(=O)O)c2)cc1S(=O)(=O)O [SST0753]	1 to 10	–
O=C(Nc1ccc(O)cc1C(=O)O)c1ccc(S(=O)(=O)c2ccc(C(=O)Nc3ccc(O)cc3C(=O)O)cc2)cc1 [SST0817]	–	IC50 (heparanase): 0.5 to 0.99 µM
O=C(O)c1ccc2c(c1)C(=O)N(c1ccc(Oc3ccc(Oc4ccc(N5C(=O)c6ccc(C(=O)O)cc6C5=O)cc4)cc3)cc1)C2=O [SST0813]	1 to 10	–
CC(C)(c1ccc(Oc2ccc3c(c2)C(=O)N(c2cccc(C(=O)O)c2)C3=O)cc1)c1ccc(Oc2ccc3c(c2)C(=O)N(c2cccc(C(=O)O)c2)C3=O)cc1 [SST0851, 3-[5-[4-[2-[4-[2-(3-carboxyphenyl)-1,3-dioxoisoindol-5-yl]oxyphenyl]propan-2-yl]phenoxy]-1,3-dioxoisoindol-2-yl]benzoic acid]	0.5 to 0.99	EC50 [1]: > 2.5 µM; EC50 [2]: > 2.5 µM; EC50 [3]: > 2.5 µM
O=C(Nc1nc(-c2ccc(F)cc2)cs1)c1ccc(Oc2ccc(C(=O)Nc3nc(-c4ccc(F)cc4)cs3)cc2)cc1 [SST0815]	1 to 10	–
O=C(Nc1ccc(Oc2ccc(NC(=O)c3ccc4c(c3)C(=O)N(c3nccs3)C4=O)cc2)cc1)c1ccc2c(c1)C(=O)N(c1nccs1)C2=O [SST0816]	1 to 10	–
O=C(O)c1ccc(Oc2cccc(N3C(=O)c4ccc(Oc5ccc6c(c5)C(=O)N(c5cccc(Oc7ccc(C(=O)O)c(C(=O)O)c7)c5)C6=O)cc4C3=O)c2)cc1C(=O)O [SST0853, 4-[3-[5-[2-[3-(3,4-dicarboxyphenoxy)phenyl]-1,3-dioxoisoindol-5-yl]oxy-1,3-dioxoisoindol-2-yl]phenoxy]phthalic acid]	0.5 to 0.99	EC50 [1]: > 2.5 µM; EC50 [2]: > 2.5 µM; EC50 [3]: > 2.5 µM
O=C(O)c1ccc2c(c1)C(=O)N(c1cccc(Oc3cccc(Oc4cccc(N5C(=O)c6ccc(C(=O)O)cc6C5=O)c4)c3)c1)C2=O [SST0857]	1 to 10	–
O=C(O)c1ccccc1N1C(=O)c2ccc(Oc3ccc(Oc4ccc5c(c4)C(=O)N(c4ccccc4C(=O)O)C5=O)cc3)cc2C1=O [SST0855, Benzoic acid, 2,2'-[1,4-phenylenebis[oxy(1,3-dihydro-1,3-dioxo-2H-isoindole-5,2-diyl)]]bis-]	1 to 10	–
O=C(Nc1nc(-c2ccc3ccccc3c2)cs1)c1ccc(Oc2ccc(C(=O)Nc3nc(-c4ccc5ccccc5c4)cs3)cc2)cc1 [SST0803]	1 to 10	–
O=C(Nc1ccc(-c2nc3ccccc3o2)cc1)c1ccc(Oc2ccc(C(=O)Nc3ccc(-c4nc5ccccc5o4)cc3)cc2)cc1 [SST0805]	–	IC50 (heparanase): 1 to 10 µM
O=C(Nc1ccc2c(O)c(N=Nc3ccc(N=Nc4ccc(S(=O)(=O)O)cc4)cc3S(=O)(=O)O)c(S(=O)(=O)O)cc2c1)Nc1ccc2c(O)c(N=Nc3ccc(N=Nc4ccc(S(=O)(=O)O)cc4)cc3S(=O)(=O)O)c(S(=O)(=O)O)cc2c1 [SST0595]	–	IC50 (heparanase; read-out: AGAIA assay (IC50), 2.5 nM heparanase, 100 µM fondaparinux, pH 5.0, 3 h at 37°C, class symbols): 0.5 to 0.99 µM; EC50 [1]: > 10 µM; EC50 [2]: > 10 µM; EC50 [3]: > 10 µM
O=C(O)/C=C/C(=O)Nc1ccc(Sc2ccc(Oc3ccc(Sc4ccc(NC(=O)/C=C/C(=O)O)cc4)cc3)cc2)cc1 [SST0806, (E)-4-[4-[4-[4-[4-[[(E)-3-carboxyprop-2-enoyl]amino]phenyl]sulfanylphenoxy]phenyl]sulfanylanilino]-4-oxobut-2-enoic acid]	0.5 to 0.99	EC50 [1]: > 2.5 µM; EC50 [2]: > 2.5 µM; EC50 [3]: > 2.5 µM
O=C(Nc1cccc(C(=O)c2ccccc2)c1)c1ccc(Oc2ccc(C(=O)Nc3cccc(C(=O)c4ccccc4)c3)cc2)cc1 [SST0801]	1 to 10	–
O=C(Nc1csc(-c2ccc(Oc3ccc(-c4nc(NC(=O)c5ccc(C(=O)c6ccccc6)cc5)cs4)cc3)cc2)n1)c1ccc(C(=O)c2ccccc2)cc1 [SST0804]	1 to 10	–
O=C(Nc1cccc(-c2nc3ccccc3s2)c1)c1ccc(Oc2ccc(C(=O)Nc3cccc(-c4nc5ccccc5s4)c3)cc2)cc1 [SST0802, N-[3-(1,3-benzothiazol-2-yl)phenyl]-4-[4-[[3-(1,3-benzothiazol-2-yl)phenyl]carbamoyl]phenoxy]benzamide]	1 to 10	–
O=C(O)c1ccc(N2C(=O)c3ccc(Oc4cccc(Oc5ccc6c(c5)C(=O)N(c5ccc(C(=O)O)cc5)C6=O)c4)cc3C2=O)cc1 [SST0860, Benzoic acid, 4,4'-[1,3-phenylenebis[oxy(1,3-dihydro-1,3-dioxo-2H-isoindole-5,2-diyl)]]bis-]	1 to 10	–
O=C(Nc1ccc(NC(=O)c2ccc(N=Nc3ccc(O)cc3O)cc2)c(S(=O)(=O)O)c1)Nc1ccc(NC(=O)c2ccc(N=Nc3ccc(O)cc3O)cc2)c(S(=O)(=O)O)c1 [SST0610]	1 to 10	–
O=C(Nc1ccc(O)cc1C(=O)O)c1ccc(Oc2ccc(C(=O)Nc3ccc(O)cc3C(=O)O)cc2)cc1 [SST0810]	1 to 10	–
O=C(Nc1ccccc1C(=O)O)c1ccc2c(c1)C(=O)N(c1ccc(S(=O)(=O)c3ccc(N4C(=O)c5ccc(C(=O)Nc6ccccc6C(=O)O)cc5C4=O)cc3)cc1)C2=O [SST0602, 2-[[2-[4-[4-[5-[(2-carboxyphenyl)carbamoyl]-1,3-dioxoisoindol-2-yl]phenyl]sulfonylphenyl]-1,3-dioxoisoindole-5-carbonyl]amino]benzoic acid]	1 to 10	–
O=C(O)c1ccc(Oc2ccc3c(c2)C(=O)N(c2ccc(Oc4ccc(N5C(=O)c6ccc(Oc7ccc(C(=O)O)cc7)cc6C5=O)cc4)cc2)C3=O)cc1 [SST0807, 4-[2-[4-[4-[5-(4-carboxyphenoxy)-1,3-dioxoisoindol-2-yl]phenoxy]phenyl]-1,3-dioxoisoindol-5-yl]oxybenzoic acid]	1 to 10	–
O=C(O)c1cc(NC(=O)c2ccc(Oc3ccc(C(=O)Nc4cc(C(=O)O)cc(C(=O)O)c4)cc3)cc2)cc(C(=O)O)c1 [SST0808, 5-[[4-[4-[(3,5-dicarboxyphenyl)carbamoyl]phenoxy]benzoyl]amino]benzene-1,3-dicarboxylic acid]	1 to 10	–
O=C(Nc1ccc(Br)cc1C(=O)O)c1ccc(Oc2ccc(C(=O)Nc3ccc(Br)cc3C(=O)O)cc2)cc1 [SST0604, 5-bromo-2-[[4-[4-[(4-bromo-2-carboxyphenyl)carbamoyl]phenoxy]benzoyl]amino]benzoic acid]	1 to 10	–
O=C(O)c1ccc(NC(=O)c2ccc(Oc3ccc(C(=O)Nc4ccc(C(=O)O)cc4)cc3)cc2)cc1 [SST0809, 4,4'-[oxybis(benzene-4,1-diylcarbonylimino)]dibenzoic acid]	1 to 10	–
O=C(Nc1ccccc1C(=O)O)c1ccc2c(c1)C(=O)N(c1ccc(Oc3ccc(N4C(=O)c5ccc(C(=O)Nc6ccccc6C(=O)O)cc5C4=O)cc3)cc1)C2=O [SST0600, Benzoic acid, 2,2'-[oxybis[4,1-phenylene(1,3-dihydro-1,3-dioxo-2H-isoindole-2,5-diyl)carbonylimino]]bis-]	1 to 10	–
O=C(Nc1cccc(Oc2ccc(S(=O)(=O)c3ccc(Oc4cccc(NC(=O)c5ccc(F)cc5)c4)cc3)cc2)c1)c1ccc(F)cc1 [SST0812]	1 to 10	–
